This note sets out measurements from patent US4613618A, “Method for treating disorders of lipid metabolism using benzene sulfonamides” (Choay S.A., priority 1981, dated 1986).

Data set [1] relates to atherosclerosis inducing diet (cholesterol, cholic acid, vitamine D2). Nature of the data set: Atherosclerosis inducing diet: biochemical exams. In kind it is in vivo, Wistar female rats. As to conditions: for TRIGLYCERIDES, % reduction with respect to the control diet / CHOLESTEROL HDL, % with respect to the control diet / CHOLESTEROL LDL, % reduction with respect to the control diet / CHOLESTEROL T, % reduction with respect to the control diet: 4 weeks administration; for CHOLESTEROL HDL, Score with respect to clofibrate / CHOLESTEROL LDL, Score with respect to clofibrate / CHOLESTEROL T, Score with respect to clofibrate / TRIGLYCERIDES, Score with respect to clofibrate: clofibrate counted as 1; for CHOLESTEROL T, % reduction with respect to the control diet: total cholesterol. More on the design: CHOLESTEROL T, % reduction with respect to the control diet / CHOLESTEROL HDL, % with respect to the control diet / CHOLESTEROL LDL, % reduction with respect to the control diet / TRIGLYCERIDES, % reduction with respect to the control diet: concentration or dose not given beside the values. The method, then: (§1) In a second experimental series, tha activity of certain products according to the invention were tested on animals which had received an atherosclerosis inducing diet for a long period.
(§2) The test was carried out on Wistar female rats, of weight about 160-180 g.
(§3) The animals received food coming from the National Nutrition plant of Villemoisson-sur-Orge, France, and denoted by the reference UAR AO3, enriched in cholesterol (0.5%) and in cholic acid (0.5%).
(§4) After 15 days of the atherosclerosis inducing diet and whilst maintaining the animals on an atherosclerosis inducing diet, they were given orally for 4 days 250.000 iu/kg of vitamine D2 marketed under the name Sterogyl 25H, in solution in olive oil.
(§5) Then the products under study were administered for 4 weeks, from the end of the administration of the lesion-inducing agent.
At the end of the study, biochemical examinations were carried out on all the animals [total cholesterol, high density lipoprotein (HDL) and cholesterol low density lipoprotein (LDL), and triglycerides].
(§6) Then the pecentage reduction with respect to the diet controls and the score were calculated, that is to say the ratio of the intensity of the activity of the product tested with respect to that of the activity of clofibrate, reckoned as 1.
Table IX gives the detailed results of the biochemical examination:
(a) in % reduction with respect to the control die;
(b) as score, with respect to the reference product, clofibrate, the latter being counted as 1.

The test system of the next data set is atherosclerosis lesions. Nature of the data set: Atherosclerosis inducing diet: macroscopic exams (affected animals). In kind it is in vivo, Wistar female rats. To be noted: for Score with respect to the reference clofibrate (animals afflicted with lesions): clofibrate counted as 1; for AFFECTED ANIMALS %: macroscopic exams, TEM-diet 100. As to the method: as §1, §2, §3, §4, §5
(§7) At the end of the study, all the animals still alive were sacrificed, and various organs were removed, particularly the aorta, for histological study of the latter. Two criteria were examined: the number of atherosclerosis areas and the severity of the lesions.
as §6
Table X gives the results of macroscopic examinations:
(a) in % decrease in animals afflicted with lesions;
(b) as score with respect to the reference clofibrate, of which the score was counted as 1.

The subject of a further data set is aorta. Nature of the data set: Atherosclerosis inducing diet: microscopic observations (aorta, histology). Set-up: HISTOLOGICAL QUOTATION, percentage reduction with respect to the diet controls / NUMBER OF ATHEROSCLEROTIC AREAS, percentage reduction with respect to the diet controls: concentration or dose not given beside the values. To be noted: for NUMBER OF ATHEROSCLEROTIC AREAS: TEM-diet 160; for HISTOLOGICAL QUOTATION, score with respect to clofibrate / NUMBER OF ATHEROSCLEROTIC AREAS, score with respect to clofibrate: clofibrate counted as 1; for HISTOLOGICAL QUOTATION, percentage reduction with respect to the diet controls / HISTOLOGICAL QUOTATION: severity of the lesions; for HISTOLOGICAL QUOTATION: TEM-diet 132. In kind it is in vivo, Wistar female rats. The method, then: as §1, §2, §3, §4, §5, §7
Calculation of the figures was carried out in the following manner:
as regards the severity of the lesions, a quotation ranging from 0 for absence of a lesion to 5+ for the severest lesions was made, and this for each type of alteration concerned (increase of interlamellar spaces, interruption of elastic laminae, thickening of the elastic laminae, calcium deposition, mucopolysaccharide deposition); then all of the results per batch of animals were added;
as regards the number of atherosclerosis areas, by counting the latter and adding all the figures obtained per batch of animals.
as §6
Table XI gives the microscopic results with histological quotation as regards the severity of the lesions, and the number of atherosclerotic areas.

Data set [2] has as its system hyperlipidemia caused by the administration of TRITON. Nature of the data set: Triton test: lipid regulating activity in hyperlipidemia caused by TRITON W. R. In kind it is in vivo, WISTAR male rats. As to conditions: Rattus norvegicus, po, 250 mg/kg orally, 6 hours and/or 24 hours. The method, then: In a first series of experiments, products were tested on a hyperlipidemia caused by the administration of TRITON according to the following procedure.
The tests were carried out on groups of five WISTAR male rats whose weight varied from 150 to 175 g.
The tested products were administered, orally in the form of a 3% aqueous solution of tragacanth gum in the ratio of 1 ml per 100 g of body weight, in an amount corresponding to 250 mg/kg.
To carry out these tests, a hyperlipidemia was caused in the animals, by means of the product marketed by the ROHM and HAAS Company under the name TRITON W. R.
On this hyperlipidemia the effects obtained by the administration of the active substances according to the invention, are observed.
The tests were carried out as follows:
the rats were fasted for 18 hours, then the TRITON W. R. was administered intravenously in 10% aqueous solution in the proportion of 200 mg/kg;
simultaneously 250 mg/kg of the product under test was administered orally;
6 hours and/or 24 hours later, blood assays were carried out conventionally.
to the total cholesterol, […]

Data set [3] is described as follows: Acute toxicity, intraperitoneal, mice. As to conditions: mouse, in vivo, ip, intraperitoneally, read-out: lethal dose 50. As to the method:
The acute toxicity is expressed by the lethal dose 50, that is to say the dose resulting in the death of 50% of the animals.
This study was carried out on mice, to which the products under test were administered intraperitoneally.
It was established as follows, for the following substances: […]

Where [4] appears, read: read-out: Total cholesterol, % of decrease with respect to Triton control.
Setting [5] is: read-out: Total lipids, % of decrease with respect to Triton control.
The mark [6] stands for this setting: read-out: Triglycerides, % of decrease with respect to Triton control.

SMILES strings stand for the structures. Like-named read-outs stand apart in the source and are kept apart here.

In the case of `CCOC(=O)C(C)(C)Oc1ccc(Cl)cc1` [CLOFIBRATE, clofibrate, reference compound], in data set [1], the “TRIGLYCERIDES, % reduction with respect to the control diet” value (shortened to “TRIGLYCERIDES, % reduction”) was -24,14%; the “CHOLESTEROL HDL, % with respect to the control diet” value (from here on “CHOLESTEROL HDL, %”) is “+104,17%”; the “CHOLESTEROL LDL, % reduction with respect to the control diet” value (“CHOLESTEROL LDL, % reduction” for short) was -55,37%; the “CHOLESTEROL HDL, Score with respect to clofibrate” value was 1,00. For the same molecule, in data set [1], the “CHOLESTEROL LDL, Score with respect to clofibrate” value (shortened to “CHOLESTEROL LDL, Score”) was 1,00; the “CHOLESTEROL T, Score with respect to clofibrate” value (from here on “CHOLESTEROL T, Score”) was 1,00; the “TRIGLYCERIDES, Score with respect to clofibrate” value (shortened to “TRIGLYCERIDES, Score”) is recorded as 1,00; the “CHOLESTEROL T, % reduction with respect to the control diet” value (“CHOLESTEROL T, % reduction” below) is given as -48,75%. For the same molecule, in the data set with atherosclerosis lesions, the “% decrease in animals afflicted with lesions” value (“% decrease” below) was 18,18%, the “Score with respect to the reference clofibrate (animals afflicted with lesions)” value (from here on “Score … (animals afflicted with lesions)”) was 1,00 and the “AFFECTED ANIMALS %” value is 81,82%. In the data set with aorta, the “NUMBER OF ATHEROSCLEROTIC AREAS, percentage reduction with respect to the diet controls” value is reported as 54,93%; the “NUMBER OF ATHEROSCLEROTIC AREAS” value is recorded as 72%; the “HISTOLOGICAL QUOTATION, score with respect to clofibrate” value was 1,00; the “NUMBER OF ATHEROSCLEROTIC AREAS, score with respect to clofibrate” value is on record as 1,00. In the data set with aorta, the “HISTOLOGICAL QUOTATION, percentage reduction with respect to the diet controls” value is on record as 62,83% and the “HISTOLOGICAL QUOTATION” value was 49%.
As to `COc1cc([N+](=O)[O-])c(Cl)cc1S(=O)(=O)NCCCCCC(=O)O` [compound 362], the change in vivo at 250 mg/kg in data set [2] (setting [4]) is -10%; in data set [2] (setting [5]) it was -39%; in data set [2] (setting [6]) it was -88%. Besides, in data set [3], the LD50 was 1760 mg/kg.
Regarding `COc1cc([N+](=O)[O-])c(Cl)cc1S(=O)(=O)NCCCC(=O)O` [compound 387], the change in vivo at 250 mg/kg in data set [2] (setting [5]) is -39%; in data set [2] (setting [6]), -90%. Moreover, the LD50 in data set [3] amounted to 3070 mg/kg.
`CCOC(=O)CCCCCCCCCCNS(=O)(=O)c1cc(Cl)c([N+](=O)[O-])cc1OC` [compound 502]: the change in vivo at 250 mg/kg in data set [2] (setting [4]) is -16%; in data set [2] (setting [5]), -45%; in data set [2] (setting [6]), -32%. The LD50 in data set [3] turned out to be 3070 mg/kg.
For `Nc1ccc(S(=O)(=O)NCCCCCC(=O)O)cc1` [compound 665] the same measures were -15%, -30%, -20% and more than 6400 mg/kg.
The corresponding values for `O=C(O)CCCCCNS(=O)(=O)c1cccc([N+](=O)[O-])c1` [compound 675] are -19%, -45%, -27% and 930 mg/kg.
The corresponding values for `CCOC(=O)CCCCCCCCCCNS(=O)(=O)c1cccc([N+](=O)[O-])c1` [compound 676] are -10%, -43%, -24% and more than 6400 mg/kg.
For `CCOC(=O)CCCNS(=O)(=O)c1cccc([N+](=O)[O-])c1` [compound 679], the change in vivo at 250 mg/kg in data set [2] (setting [4]) was -30%. Also, the change in vivo at 250 mg/kg in data set [2] (setting [5]) is -61%. Moreover, the change in vivo at 250 mg/kg in data set [2] (setting [6]) is -34%. Further, in data set [1], the “TRIGLYCERIDES, % reduction” value stood at 0%; the “CHOLESTEROL HDL, %” value is given as “+58,33%”; the “CHOLESTEROL LDL, % reduction” value was -60,14%; the “CHOLESTEROL HDL, Score with respect to clofibrate” value is recorded as 0,56. Moreover, in data set [1], the “CHOLESTEROL LDL, Score” value was 1,09; the “CHOLESTEROL T, Score” value is 1,09; the “TRIGLYCERIDES, Score” value came out at 0; the “CHOLESTEROL T, % reduction” value is listed as -53,13%. Also, in the data set on atherosclerosis lesions, the “% decrease” value is given as 7,14%, the “Score … (animals afflicted with lesions)” value is 0,39 and the “AFFECTED ANIMALS %” value is reported as 92,86%. In addition, in the data set on aorta, the “NUMBER OF ATHEROSCLEROTIC AREAS, percentage reduction with respect to the diet controls” value is on record as 48,57%; the “NUMBER OF ATHEROSCLEROTIC AREAS” value came out at 82%; the “HISTOLOGICAL QUOTATION, score with respect to clofibrate” value is given as 0,64; the “NUMBER OF ATHEROSCLEROTIC AREAS, score with respect to clofibrate” value is listed as 0,88. In addition, in the data set with aorta, the “HISTOLOGICAL QUOTATION, percentage reduction with respect to the diet controls” value was 39,97% and the “HISTOLOGICAL QUOTATION” value is reported as 79%.
`CCOC(=O)CCCCCCCCCCNS(=O)(=O)c1ccc(OC)cc1` [compound 729]: the change in vivo at 250 mg/kg in data set [2] (setting [6]) was -17%. Moreover, the LD50 in data set [3] was more than 6400 mg/kg.
As for `O=C(O)CCCNS(=O)(=O)c1cccnc1` [compound 786], the change in vivo at 250 mg/kg in data set [2] (setting [4]) is -36%. Also, the change in vivo at 250 mg/kg in data set [2] (setting [5]) was -24%. Further, in data set [2] (setting [6]), the change in vivo at 250 mg/kg was -17%. Besides, in data set [1], the “TRIGLYCERIDES, % reduction” value is -17,24%; the “CHOLESTEROL HDL, %” value is -20,83%; the “CHOLESTEROL LDL, % reduction” value is recorded as -57,07%; the “CHOLESTEROL LDL, Score” value was 1,03. In data set [1], the “CHOLESTEROL T, Score” value is reported as 1,11; the “TRIGLYCERIDES, Score” value is listed as 0,71; the “CHOLESTEROL T, % reduction” value is -54,22%. Further, in the data set with atherosclerosis lesions, the “% decrease” value is recorded as 6,67%, the “Score … (animals afflicted with lesions)” value is recorded as 0,37 and the “AFFECTED ANIMALS %” value was 93,33%.
